Reference: US9400274B2, “Cancer phospholipidome” (Katholieke Universiteit Leuven, priority 2010, dated 2016)
Entries after “also recorded” stand apart in the source; their conditions may differ.

Key:
[1] = tested on: human renal cell carcinoma cell line RCC4; experiment: Phospholipid profiling (tandem MS) of soraphen-treated RCC4 cells; assay type: cell-based; settings: 100 nm soraphen vs vehicle, 72 h, PC, PE, PI, PS classes
Method: Renal cancer cell lines RCC4 VHL (Von Hippel Lindau) positive and negative were cultured in advanced DMEM supplemented with 10% fetal bovine serum, 1% PSG and 0.5 mg/ml G418. Cells were grown at 37° C. in a humidified 5% CO2 incubator. The day after seeding, cells were treated with 100 nm soraphen or vehicle (control) for 72 h.
To assess the impact of fatty acyl chain elongation and of chemical inhibitors of this process, the human renal cell carcinoma cell line RCC4 was treated with soraphen.

[2] = tested on: Human breast adenocarcinoma cells MDA-MB-231; experiment: Phospholipid profiling (tandem MS) of soraphen-treated MDA-MB-231 cells; assay type: cell-based; settings: 100 nm soraphen vs vehicle, 72 h, four phospholipid classes
Method: Human breast adenocarcinoma cells MDA-MB-231 (obtained from the American Type Culture Collection) were cultured in DMEM-F12 supplemented with 10% fetal bovine serum and were grown at 37° C. in a humidified 5% CO2 incubator. The day after seeding, cells were treated with 100 nm soraphen or vehicle (control) for 72 h.
Lipids were extracted from both soraphen and vehicle treated cells and were analyzed by tandem mass spectrometry.

## CO[C@H]1CCCC[C@@H](c2ccccc2)OC(=O)[C@@H](C)[C@@]2(O)O[C@H]([C@@H](C)[C@H](O)[C@H]2OC)[C@@H](C)/C=C/[C@H]1OC [soraphen]
[1]
  changes in phospholipid acyl chain composition (soraphen/control ratio): a marked shift from longer to shorter lipid species; also recorded: a marked inhibition of acyl chain elongation
[2]
  changes in phospholipid acyl chain composition (soraphen/control ratio): a marked shift from longer to shorter lipid species; also recorded: a clear decrease in the longer lipid species
